Data from patent US11040035B2, “3-oxo-2,6-diphenyl-2,3-dihydropyridazine-4-carboxamides” (BAYER PHARMA AKTIENGESELLSCHAFT, priority 2016, dated 2021).

What was measured:
AHR [1] = molecular target: T1, AHR (Homo sapiens, UniProt P35869); assay: In vitro assay 2: agonism in human cell line (transactivation assay); conditions: Assay 2: AHR-luc Hum Agonism IC50 [M], no kynurenic acid, 20 hours, firefly luciferase
T1 sequence (P35869 11-848): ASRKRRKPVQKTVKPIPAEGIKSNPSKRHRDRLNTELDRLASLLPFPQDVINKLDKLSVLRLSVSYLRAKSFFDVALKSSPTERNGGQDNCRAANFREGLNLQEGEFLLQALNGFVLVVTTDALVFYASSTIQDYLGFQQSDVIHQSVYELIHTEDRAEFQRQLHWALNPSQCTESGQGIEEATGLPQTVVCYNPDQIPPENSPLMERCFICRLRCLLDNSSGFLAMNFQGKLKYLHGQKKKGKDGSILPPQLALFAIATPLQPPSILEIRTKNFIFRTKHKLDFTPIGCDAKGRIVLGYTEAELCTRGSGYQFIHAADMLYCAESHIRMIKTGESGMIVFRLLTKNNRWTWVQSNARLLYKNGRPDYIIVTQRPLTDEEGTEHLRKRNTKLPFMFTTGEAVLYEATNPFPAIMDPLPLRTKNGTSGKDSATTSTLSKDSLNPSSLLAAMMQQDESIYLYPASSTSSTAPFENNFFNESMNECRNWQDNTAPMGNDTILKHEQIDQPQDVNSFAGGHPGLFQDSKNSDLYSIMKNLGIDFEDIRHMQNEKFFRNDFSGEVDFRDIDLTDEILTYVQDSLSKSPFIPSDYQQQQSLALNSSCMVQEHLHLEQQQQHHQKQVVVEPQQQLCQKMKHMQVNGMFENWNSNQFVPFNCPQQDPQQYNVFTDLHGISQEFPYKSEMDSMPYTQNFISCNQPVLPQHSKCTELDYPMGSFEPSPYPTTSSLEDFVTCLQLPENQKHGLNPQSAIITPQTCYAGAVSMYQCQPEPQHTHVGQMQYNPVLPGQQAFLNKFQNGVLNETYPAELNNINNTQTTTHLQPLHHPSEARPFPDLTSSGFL

AHR [2] = molecular target: T1, AHR; assay: In vitro assay 1: antagonism in human cell line (transactivation assay, kynurenic acid prestimulated); conditions: Assay 1: AHR-luc Hum Antagonism IC50 [M], 150 μM kynurenic acid, 20 hours, firefly luciferase

| Structure (SMILES) | IC50 (AHR [1]) [M] | IC50 (AHR [2]) [M] |
| --- | --- | --- |
| O=C(NCC(O)C(F)F)c1cc(-c2ccc(Cl)cc2)nn(-c2cccc(F)c2)c1=O (racemic) [Example 221, 6-(4-Chlorophenyl)-N-[(2RS)-3,3-difluoro-2-hydroxypropyl]-2-(3-fluorophenyl)-3-oxo-2,3-dihydropyridazine-4-carboxamide] | > 2e-05 | 7.64e-08 |
| O=C(NC(CO)CCO)c1cc(-c2ccc(Cl)cc2)nn(-c2cccc(F)c2)c1=O (racemic) [Example 224, 6-(4-Chlorophenyl)-N-[(2RS)-1,4-dihydroxybutan-2-yl]-2-(3-fluorophenyl)-3-oxo-2,3-dihydropyridazine-4-carboxamide] | > 2e-05 | 2.79e-07 |
| COCCC(CO)NC(=O)c1cc(-c2ccc(Cl)cc2)nn(-c2cccc(F)c2)c1=O (racemic) [Example 227, 6-(4-Chlorophenyl)-2-(3-fluorophenyl)-N-[(2RS)-1-hydroxy-4-methoxybutan-2-yl]-3-oxo-2,3-dihydropyridazine-4-carboxamide] | > 2e-05 | 3.57e-07 |
| O=C(NC(CO)C1CCCO1)c1cc(-c2ccc(Cl)cc2)nn(-c2cccc(F)c2)c1=O (racemic) [Example 230, 3,6-Anhydro-2-({[6-(4-chlorophenyl)-2-(3-fluorophenyl)-3-oxo-2,3-dihydropyridazin-4-yl]carbonyl}amino)-2,4,5-trideoxy-DL-erythro-hexitol and 1,4-anhydro-5-({[6-(4-chlorophenyl)-2-(3-fluorophenyl)-3-oxo-2,3-dihydropyridazin-4-yl]carbonyl}amino)-2,3,5-trideoxy-DL-threo-hexitol] | > 2e-05 | 1.37e-07 |
| O=C(NCC(O)C1CCCC1)c1cc(-c2ccc(Cl)cc2)nn(-c2cccc(F)c2)c1=O (racemic) [Example 232, 6-(4-Chlorophenyl)-N-[(2RS)-2-cyclopentyl-2-hydroxyethyl]-2-(3-fluorophenyl)-3-oxo-2,3-dihydropyridazine-4-carboxamide] | > 2e-05 | 1.19e-07 |
| CCC(CC)C(O)CNC(=O)c1cc(-c2ccc(Cl)cc2)nn(-c2cccc(F)c2)c1=O (racemic) [Example 233, 6-(4-Chlorophenyl)-N-[(2RS)-3-ethyl-2-hydroxypentyl]-2-(3-fluorophenyl)-3-oxo-2,3-dihydropyridazine-4-carboxamide] | > 2e-05 | 1.72e-07 |
| CN(C)CC(O)CNC(=O)c1cc(-c2ccc(Cl)cc2)nn(-c2cccc(F)c2)c1=O (racemic) [Example 235, 6-(4-Chlorophenyl)-N-[(2RS)-3-(dimethylamino)-2-hydroxypropyl]-2-(3-fluorophenyl)-3-oxo-2,3-dihydropyridazine-4-carboxamide] | > 2e-05 | 3e-06 |
| Cc1ccc(-c2cc(C(=O)NC(CO)C3CC3)c(=O)n(-c3cccc(F)c3)n2)cc1 (racemic) [Example 236, N-[(1RS)-1-Cyclopropyl-2-hydroxyethyl]-2-(3-fluorophenyl)-6-(4-methylphenyl)-3-oxo-2,3-dihydropyridazine-4-carboxamide] | > 2e-05 | 8.23e-08 |
| CC(C)C(O)CNC(=O)c1cc(-c2ccc(C(F)(F)F)cc2)nn(-c2cccc(F)c2)c1=O (racemic) [Example 241, 2-(3-Fluorophenyl)-N-[(2RS)-2-hydroxy-3-methylbutyl]-3-oxo-6-[4-(trifluoromethyl)phenyl]-2,3-dihydropyridazine-4-carboxamide] | 1.16e-07 | > 2e-05 |
| O=C(NCC(O)C(F)(F)F)c1cc(-c2ccc(C(F)(F)F)cc2)nn(-c2cccc(F)c2)c1=O (racemic) [Example 242, 2-(3-Fluorophenyl)-3-oxo-N-[(2RS)-3,3,3-trifluoro-2-hydroxypropyl]-6-[4-(trifluoromethyl)phenyl]-2,3-dihydropyridazine-4-carboxamide] | 1.18e-05 | > 2e-05 |
| COCCC(CO)NC(=O)c1cc(-c2ccc(C(F)(F)F)cc2)nn(-c2cccc(F)c2)c1=O (racemic) [Example 259, 2-(3-Fluorophenyl)-N-[(2RS)-1-hydroxy-4-methoxybutan-2-yl]-3-oxo-6-[4-(trifluoromethyl)phenyl]-2,3-dihydropyridazine-4-carboxamide] | > 2e-05 | 3.82e-08 |
| O=C(NCC(O)C(F)F)c1cc(-c2ccc(C(F)(F)F)cc2)nn(-c2cccc(F)c2)c1=O (racemic) [Example 261, N-[(2RS)-3,3-Difluoro-2-hydroxypropyl]-2-(3-fluorophenyl)-3-oxo-6-[4-(trifluoromethyl)phenyl]-2,3-dihydropyridazine-4-carboxamide] | > 2e-05 | 2.26e-08 |
| CC(C)(O)C(O)CNC(=O)c1cc(-c2ccc(Cl)cc2)nn(-c2cccc(F)c2)c1=O (racemic) [Example 322, 6-(4-chlorophenyl)-N-[(2RS)-2,3-dihydroxy-3-methylbutyl]-2-(3-fluorophenyl)-3-oxo-2,3-dihydropyridazine-4-carboxamide] | > 2e-05 | 1.14e-07 |
| O=C(NC(CO)Cc1ccccn1)c1cc(-c2ccc(Cl)cc2)nn(-c2cccc(F)c2)c1=O (racemic) [Example 333, 6-(4-chlorophenyl)-2-(3-fluorophenyl)-N-[(2RS)-1-hydroxy-3-(pyridin-2-yl)propan-2-yl]-3-oxo-2,3-dihydropyridazine-4-carboxamide] | > 2e-05 | 1.34e-07 |
| O=C(NC(CO)Cc1ccncc1)c1cc(-c2ccc(Cl)cc2)nn(-c2cccc(F)c2)c1=O (racemic) [Example 334, 6-(4-chlorophenyl)-2-(3-fluorophenyl)-N-[(2RS)-1-hydroxy-3-(pyridin-4-yl)propan-2-yl]-3-oxo-2,3-dihydropyridazine-4-carboxamide] | > 2e-05 | 1.09e-07 |
| O=C(NC(CO)Cc1cccnc1)c1cc(-c2ccc(Cl)cc2)nn(-c2cccc(F)c2)c1=O (racemic) [Example 338, 6-(4-chlorophenyl)-2-(3-fluorophenyl)-N-[(2RS)-1-hydroxy-3-(pyridin-3-yl)propan-2-yl]-3-oxo-2,3-dihydropyridazine-4-carboxamide] | > 2e-05 | 7.32e-08 |
| O=C(NC(CCO)C(F)(F)F)c1cc(-c2ccc(Cl)cc2)nn(-c2cccc(F)c2)c1=O (racemic) [Example 340, 6-(4-chlorophenyl)-2-(3-fluorophenyl)-3-oxo-N-[(2RS)-1,1,1-trifluoro-4-hydroxybutan-2-yl]-2,3-dihydropyridazine-4-carboxamide] | > 2e-05 | 2.26e-08 |
| O=C(N[C@@H]1COC[C@@H]1O)c1cc(-c2ccc(C(F)(F)F)cc2)nn(-c2cccc(F)c2)c1=O (racemic) [Example 341, 2-(3-fluorophenyl)-N-(cis-4-hydroxytetrahydrofuran-3-yl)-3-oxo-6-[4-(trifluoromethyl)phenyl]-2,3-dihydropyridazine-4-carboxamide] | > 2e-05 | 8.45e-09 |
| O=C(N[C@@H]1CC[C@@H]1O)c1cc(-c2ccc(Cl)cc2)nn(-c2cccc(F)c2)c1=O (racemic) [Example 356, 6-(4-chlorophenyl)-2-(3-fluorophenyl)-N-(cis-2-hydroxycyclobutyl)-3-oxo-2,3-dihydropyridazine-4-carboxamide] | > 2e-05 | 4.18e-08 |
| COc1ccc(-c2cc(C(=O)N[C@@H]3CCCC[C@@H]3O)c(=O)n(-c3cccc(F)c3)n2)cc1 (relative stereo) [Example 106, 2-(3-Fluorophenyl)-N-(cis-2-hydroxycyclohexyl)-6-(4-methoxyphenyl)-3-oxo-2,3-dihydropyridazine-4-carboxamide] | > 2e-05 | 1.98e-08 |
| O=C(N[C@H]1CCCC[C@@H]1O)c1cc(-c2ccc(Cl)cc2)nn(-c2cccc(F)c2)c1=O (relative stereo) [Example 117, 6-(4-chlorophenyl)-2-(3-fluorophenyl)-N-(trans-2-hydroxycyclohexyl)-3-oxo-2,3-dihydropyridazine-4-carboxamide] | > 2e-05 | 3.67e-08 |
| O=C(N[C@@H]1CCCC[C@@H]1O)c1cc(-c2ccc(OC(F)F)cc2)nn(-c2cccc(F)c2)c1=O (relative stereo) [Example 130, 6-[4-(Difluoromethoxy)phenyl]-2-(3-fluorophenyl)-N-(cis-2-hydroxycyclohexyl)-3-oxo-2,3-dihydropyridazine-4-carboxamide] | > 2e-05 | 4.37e-08 |
| O=C(N[C@H]1COC[C@@H]1O)c1cc(-c2ccc(Cl)cc2)nn(-c2cccc(F)c2)c1=O (relative stereo) [Example 134, 6-(4-Chlorophenyl)-2-(3-fluorophenyl)-N-(trans-4-hydroxytetrahydrofuran-3-yl)-3-oxo-2,3-dihydropyridazine-4-carboxamide] | > 2e-05 | 1.72e-07 |
